According to patent US20190046662A1, “Compositions and Methods for Treating Neuropathic Pain” (Rutgers, The State University of New Jersey, priority 2016, published 2019):

Legend:
hTac1-hM4D [1] = molecular target: T1, hTac1-hM4D (Homo sapiens, UniProt P08173, A203G/Y113C); assay: Face grooming after s.c. formalin into right upper lip, Tac1-DREADD (hTac1-hM4D); format: in vivo, rat; details: females, n=7 per group, vs vehicle
T1 construct: expressed in transfected cells; host or cells: rat trigeminal ganglion neurons in vivo, viral vector with Tac1 promoter
T1 sequence (P08173 1-479 Y113C/A203G): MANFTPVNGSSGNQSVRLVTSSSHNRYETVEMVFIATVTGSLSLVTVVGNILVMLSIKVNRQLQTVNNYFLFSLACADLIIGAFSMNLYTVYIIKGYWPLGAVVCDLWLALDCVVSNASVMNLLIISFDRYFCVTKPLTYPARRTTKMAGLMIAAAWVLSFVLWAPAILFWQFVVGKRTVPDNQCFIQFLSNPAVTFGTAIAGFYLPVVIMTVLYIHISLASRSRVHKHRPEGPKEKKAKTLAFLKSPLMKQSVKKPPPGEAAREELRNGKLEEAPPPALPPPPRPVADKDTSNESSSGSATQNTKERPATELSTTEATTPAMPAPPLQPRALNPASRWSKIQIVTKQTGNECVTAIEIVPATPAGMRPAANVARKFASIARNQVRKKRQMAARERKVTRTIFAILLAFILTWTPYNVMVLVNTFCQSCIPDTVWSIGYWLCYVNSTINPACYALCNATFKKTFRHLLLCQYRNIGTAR
Description: The effects of Tac1-DREADD activation with CNO on face grooming activity observed after s.c. injection of formalin into the right upper lip were also studied (FIG. 9). The mean number of seconds that rats (females, n=7 per group) spent grooming (±SEM) is plotted for the 45 minutes post-formalin injection observation period. All animals had Tac1-DREADD (hTac1-hM4D) injected into the right trigeminal ganglion. CNO or vehicle was delivered i.p. 30 minutes prior to the s.c. injection of 1.5% formalin (50 μl) into the right upper lip (ipsilateral side), just lateral to the nose.

hTac1-hM4D [2] = molecular target: T1, hTac1-hM4D; assay: von Frey detection threshold, Tac1-DREADD (hTac1-hM4D) in right trigeminal ganglion, non-CCI animals; format: in vivo, rat; details: females, n=7 per group, CNO i.p. vs vehicle
Description: The effects of Tac1-DREADD activation with CNO on von Frey detection threshold were also studied (FIG. 7). All animals (female, n=7 per group) had Tachykinin 1-DREADD (hTac1-hM4D; Tac1 promoter driven DREADD) injected into the right trigeminal ganglion. Average von Frey detection thresholds (±SEM) are plotted following intraperitoneal administration of CNO or vehicle.

C[N+]1([O-])CCN(C2=Nc3cc(Cl)ccc3Nc3ccccc32)CC1 [CNO, clozapine N-oxide]
no significant effect: total face grooming time, acute phase (0-6 minutes post formalin injection) (hTac1-hM4D [1]; CNO i.p. 30 min prior to 1.5% formalin (50 μl) s.c., F=0.07, P=0.8) | total face grooming time, tonic phase (12-45 minutes post formalin injection) (hTac1-hM4D [1]; CNO i.p. 30 min prior to formalin, F=1.6, P=0.2) | von Frey detection threshold, contralateral vibrissal pad (hTac1-hM4D [2]; F=0.4, P=0.6) | von Frey detection threshold, ipsilateral vibrissal pad (hTac1-hM4D [2]; F=1.4, P=0.3)
